The test system of data set [1] is SARS-CoV-2 pseudovirus California B.1.429. Briefly: microbe, parasite or virus in culture. The class given is cell-based.
Data set [2] concerns SARS-CoV-2 pseudovirus Uganda A23.1. Briefly: microbe, parasite or virus in culture. The class given is cell-based.
Data set [3] has as its system SARS-CoV-2 pseudovirus South Africa B.1.351. Briefly: microbe, parasite or virus in culture. The class given is cell-based.
Data set [4] concerns SARS-CoV-2 pseudovirus New York B.1.526. Put plainly: microbe, parasite or virus in culture. The class given is cell-based.
For data set [5], the system named is SARS-CoV-2 pseudovirus Nigeria B.1.525. Briefly: microbe, parasite or virus in culture. Format: cell-based.
Data set [6] deals with SARS-CoV-2 pseudovirus Wuhan D614. Put plainly: microbe, parasite or virus in culture. Format: cell-based.
Data set [7] deals with SARS-CoV-2. The note with it: mouse, in vivo.
The test system of data set [8] is SARS-CoV-2 pseudovirus Brazil P.1. Briefly: microbe, parasite or virus in culture. Format: cell-based.
The test system of data set [9] is SARS-CoV-2 pseudovirus India B.1.617.1. Put plainly: microbe, parasite or virus in culture. Format: cell-based.
Data set [10] concerns the target T1, SARS-CoV-2 main protease (Mpro) (Severe acute respiratory syndrome coronavirus 2, UniProt P0DTD1).
T1 construct: a recombinant 2019-nCoV 3CL protease protein (Elabscience bio Inc) was used; purchased Elabscience bio Inc
The class given is biochemical. The note with it: read-out: half maximal effective concentration (EC50) against Mpro activity.

The target of data set [11] is T2, TMPRSS2 (Homo sapiens, UniProt O15393).
T2 construct: purchased BPS BIOSCIENCE 78083
T2 sequence (O15393 whole entry): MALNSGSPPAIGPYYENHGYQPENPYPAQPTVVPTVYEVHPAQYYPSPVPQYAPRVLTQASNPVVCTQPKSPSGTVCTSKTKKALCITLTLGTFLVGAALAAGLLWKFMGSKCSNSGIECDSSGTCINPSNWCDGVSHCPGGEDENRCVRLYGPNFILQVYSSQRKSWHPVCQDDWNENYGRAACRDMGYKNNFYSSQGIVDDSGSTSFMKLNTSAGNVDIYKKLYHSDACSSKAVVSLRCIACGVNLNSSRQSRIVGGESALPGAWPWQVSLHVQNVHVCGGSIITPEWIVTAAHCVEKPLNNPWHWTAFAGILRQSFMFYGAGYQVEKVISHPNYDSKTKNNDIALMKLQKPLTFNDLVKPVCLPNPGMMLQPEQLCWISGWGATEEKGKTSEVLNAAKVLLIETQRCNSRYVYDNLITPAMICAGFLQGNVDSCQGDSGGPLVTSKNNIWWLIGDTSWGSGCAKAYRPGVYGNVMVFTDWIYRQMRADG
Put plainly: TMPRSS2 Fluorogenic Assay Kit. Format: biochemical. The note with it: TMPRSS2 150 ng/group, 50 μL reaction; read-out: half maximal effective concentration (EC50) against TMPRSS2 protease activity. The method, then: In the biochemical experiments, TMPRSS2 Fluorescence Assay Kit (TMPRSS2 Fluorogenic Assay Kit, BPS BIOSCIENCE, 78083) was used in the test method. Inhibitory activity was measured by sequential kinetic analysis according to the manufacturer's manual, the inhibition activity was measured by using continuous kinetic analysis, the samples containing TMPRSS2 were reacted with a fluorescent substrate in a mixing, and a fluorescence (λex=383 nm, λem=455 nm) readings were used. Camostat protease inhibitor was used as a positive control. The experiment was performed in a 50 μL reaction system, the single reaction dose of TMPRSS2 was 150 ng/group, and 10 μM Camostat protease inhibitor was used as a positive control. The effect of Anisomelic acid on the inhibition of TMPRSS2 protease activity was examined by tested various concentrations of Anisomelic acid (0.5, 1, 2.5, 5, 10, 20 and 30 μM). A significant inhibition of Anisomelic acid against TMPRSS2 protease activity was found in a dose-dependent manner.

For data set [12], the target named is T3, Cathepsin B (Homo sapiens, UniProt P07858).
T3 construct: purchased BPS BIOSCIENCE 79590
Put plainly: Cathepsin B Inhibitor Screening Assay Kit (fluorescence). To be noted: Cathepsin B 0.4 ng/group, 50 μL reaction; read-out: half maximal effective concentration (EC50) against Cathepsin B protease activity. Format: biochemical. The procedure:
In the biochemical test, the Cathepsin B Fluorescence Assay Kit (Cathepsin B Inhibitor Screening Assay Kit, BPS BIOSCIENCE, 79590) was used in the test method. According to the manufacturer's manual, the inhibition activity was measured through continuous kinetic analysis, the samples containing Cathepsin B were reacted with a fluorescent substrate in the mixing, and the measured fluorescence (λex=360 nm, λem=460 nm) readings were used. The E64 protease inhibitor was used as a positive control. The experiment was conducted in a 50 μL reaction system, with a single reaction dose of Cathepsin B at 0.4 ng/group, the E64 protease inhibitor were used as a positive control. The inhibitory impact of various concentrations of Anisomelic acid (0.5, 1, 2.5, 5, 10, 20, and 30 μM) against Cathepsin B protease activity was examined. The significant inhibition of Anisomelic acid against Cathepsin B protease activity was found in a dose-dependent manner.

Data set [13] addresses Cathepsin L (Homo sapiens, UniProt P07711). Put plainly: Cathepsin L Inhibitor Screening Assay Kit (fluorescence). Format: biochemical. To be noted: Cathepsin L 0.4 ng/group, 50 μL reaction; read-out: half maximal effective concentration (EC50) against Cathepsin L protease activity. The procedure:
The Cathepsin L Fluorescence Assay Kit (Cathepsin L Inhibitor Screening Assay Kit, BPS BIOSCIENCE, 79591) was used in the biochemical test method. According to the manufacturer's manual, the inhibition activity was measured through continuous kinetic analysis, the samples containing Cathepsin L were reacted with a fluorescent substrate in mixing, and the measured fluorescence (λex=360 nm, λem=460 nm) readings were used. The E64 protease inhibitor was used as a positive control. The experiment was conducted in a 50 μL reaction system, with a single reaction dose of Cathepsin L at 0.4 ng/group, the E64 was used as the positive control of inhibition. The inhibitory impact of various concentrations of Anisomelic acid (0.5, 1, 2.5, 5, 10, 20, and 30 μM) against Cathepsin L protease activity was examined. As shown in the right graph of FIG. 5B, the significant inhibition of Anisomelic acid against Cathepsin L protease activity was found in a dose-dependent manner.

Setting [14] is: Severe acute respiratory syndrome-related coronavirus, Huh-7, read-out: IC50 inhibiting infection.

pEC50: −log10 of the molar value. Values after ≈ are worked out from the molar mass of the structure shown.

Sequence of Cathepsin L (P07711 114-333): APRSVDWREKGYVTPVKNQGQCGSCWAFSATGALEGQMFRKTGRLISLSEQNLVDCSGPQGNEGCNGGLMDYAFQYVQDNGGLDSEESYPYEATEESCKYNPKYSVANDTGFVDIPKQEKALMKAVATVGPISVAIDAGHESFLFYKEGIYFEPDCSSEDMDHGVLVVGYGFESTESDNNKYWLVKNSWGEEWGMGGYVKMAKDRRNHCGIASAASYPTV

`CCC(CC)COC(=O)[C@H](C)N[P@](=O)(OC[C@H]1O[C@@](C#N)(c2ccc3c(N)ncnn23)[C@H](O)[C@@H]1O)Oc1ccccc1` [Remdesivir, reference compound]: the IC50 was 15.9 mg/L (≈ 26.4 µM) in [1] (setting [14]); 7.63 mg/L (≈ 12.7 µM) in data set [2] (setting [14]); 27.2 mg/L (≈ 45.2 µM) in [3] (setting [14]); 15 mg/L (≈ 24.9 µM) in data set [4] (setting [14]); 10.3 mg/L (≈ 17.1 µM) in data set [5] (setting [14]); 2.96 mg/L (≈ 4.91 µM) in [6] (setting [14]). The IC50 in [8] (setting [14]) came to 13.8 mg/L (≈ 22.8 µM); in [9] (setting [14]) it was 11.9 mg/L (≈ 19.8 µM). Also, in [7], the “changes in body weight of the mice” value was “basically similar”.

Regarding `C=C1C(=O)OC2/C=C(/C)CC/C=C(\C(=O)O)CC/C=C(\C)CCC12` (centres unmarked) [Anisomelic acid], the IC50 inhibiting infection in [1] was determined as 8.47 mg/L (≈ 25.6 µM); in [2] it was 15.53 mg/L (≈ 47 µM); in data set [3], 27.55 mg/L (≈ 83.4 µM); in [4], 8.86 mg/L (≈ 26.8 µM); in data set [5] it was 14.36 mg/L (≈ 43.5 µM); in data set [6], 3.50 mg/L (≈ 10.6 µM). Moreover, the IC50 inhibiting infection is 0.12 mg/L (≈ 0.363 µM) in data set [8] and 10.09 mg/L (≈ 30.5 µM) in [9]. The pEC50 in data set [10] is 5.01; in data set [11], 5.19; in [12] it was 5.37; in data set [13] it was 5.43. For the same molecule, the “changes in body weight of the mice” value in data set [7] is “basically similar”. The “changes in the titers of coronavirus infection in the lungs of mice” value in data set [7] was “better prevention and control effects”.

`C=C1C(=O)O[C@@H]2/C=C(\C)C[C@H]3C=C(CC/C=C(\C)CC[C@@H]12)C(=O)O3` [Ovatodiolide]: the IC50 inhibiting infection in data set [1] stood at 12.09 mg/L (≈ 36.8 µM); in [2] it was 6.72 mg/L (≈ 20.5 µM); in data set [3], 15.42 mg/L (≈ 47 µM); in data set [4] it was 11.35 mg/L (≈ 34.6 µM); in [5], 8.24 mg/L (≈ 25.1 µM); in data set [6], 4.08 mg/L (≈ 12.4 µM). In addition, the IC50 inhibiting infection was found to be 7.00 mg/L (≈ 21.3 µM) in data set [8] and 15.27 mg/L (≈ 46.5 µM) in data set [9]. The “changes in body weight of the mice” value in data set [7] was “basically similar”.

One may read the IC50 as the concentration that gives 50% inhibition.

These data come from patent publication US20240408055A1 (priority 2021, published 2024).
